From the NIST ThermoML archive (doi:10.1016/j.jct.2004.06.009)

Test: molar heat capacity at constant pressure
Details: 101.33 kPa, Crystal 2

CC12CC3CC(C1)CC(C)(C3)C2 [1,3-dimethyladamantane]
Details | molar heat capacity at constant pressure [J/K/mol]
8.24 K | 2.062
8.72 K | 2.425
9.2 K | 2.838
9.68 K | 3.291
10.16 K | 3.758
10.73 K | 4.336
11.38 K | 5.1
12.04 K | 5.875
12.71 K | 6.75
13.36 K | 7.626
14.03 K | 8.543
14.69 K | 9.462
15.35 K | 10.41
16.02 K | 11.41
16.68 K | 12.45
17.35 K | 13.38
18.02 K | 14.36
18.7 K | 15.27
19.36 K | 16.17
20.03 K | 17.19
20.92 K | 18.43
22.01 K | 19.87
23.09 K | 21.29
24.18 K | 22.59
25.26 K | 23.98
26.35 K | 25.2
27.44 K | 26.35
30.7 K | 29.56
31.79 K | 30.56
32.87 K | 31.44
33.96 K | 32.41
35.04 K | 33.24
36.12 K | 34.11
37.2 K | 34.83
38.29 K | 35.57
39.37 K | 36.35
40.44 K | 37.09
41.52 K | 37.79
42.59 K | 38.45
43.67 K | 39.15
44.74 K | 39.94
45.82 K | 40.58
46.91 K | 41.26
49.08 K | 42.53
50.15 K | 43.17
51.21 K | 43.97
52.28 K | 44.55
53.34 K | 45.28
54.4 K | 45.93
55.46 K | 46.84
56.52 K | 47.67
58.46 K | 49.49
60.51 K | 51.1
62.53 K | 52.46
63 K | 52.93
63.91 K | 53.57
64.83 K | 54.06
65.75 K | 54.71
66.66 K | 55.08
67.58 K | 55.66
68.49 K | 56.24
69.41 K | 57.05
71.4 K | 57.87
73.43 K | 58.84
75.49 K | 59.92
77.45 K | 60.94
79.6 K | 62.15
81.55 K | 63.11
82.51 K | 63.18
83.54 K | 64.04
84.58 K | 64.38
85.62 K | 65.28
86.66 K | 66.25
87.69 K | 66.5
88.73 K | 67.15
89.76 K | 68.17
90.79 K | 68.78
91.82 K | 69.62
92.85 K | 70.65
93.88 K | 71.07
94.91 K | 71.83
95.93 K | 72.84
96.96 K | 73.52
97.98 K | 74.02
99.01 K | 74.65
100.04 K | 75.78
101.06 K | 77.14
102.08 K | 77.29
103.1 K | 78.16
104.13 K | 78.65
105.15 K | 79.24
106.17 K | 79.77
107.18 K | 80.75
108.2 K | 81.19
109.21 K | 82.31
110.22 K | 83.3
111.24 K | 83.76
112.25 K | 84.74
113.26 K | 85.56
114.27 K | 86.06
115.29 K | 86.71
116.3 K | 87.61
117.31 K | 88.53
118.32 K | 89.31
119.33 K | 90.06
120.34 K | 90.8
121.35 K | 91.66
122.36 K | 92.56
123.36 K | 93.09
124.37 K | 94.23
125.38 K | 94.72
126.39 K | 95.77
127.4 K | 96.32
128.4 K | 97.15
129.4 K | 97.61
130.4 K | 98.84
131.41 K | 99.23
132.41 K | 99.74
133.41 K | 100.92
135.41 K | 102.12
136.41 K | 102.85
137.41 K | 103.66
138.41 K | 104.15
139.41 K | 105.02
140.41 K | 106
141.4 K | 106.56
142.4 K | 107.72
143.4 K | 107.89
144.4 K | 108.44
145.37 K | 109.47
146.37 K | 110.32
147.36 K | 111.05
148.36 K | 112.04
149.35 K | 112.85
150.34 K | 113.58
151.33 K | 114.44
153.32 K | 115.43
154.31 K | 116.66
155.3 K | 117.21
156.29 K | 118.03
157.28 K | 118.57
158.26 K | 119.55
159.25 K | 119.81
160.24 K | 120.34
161.21 K | 122.14
162.2 K | 123.06
163.18 K | 123.69
